Measurements reported in PubChem BioAssay (NCI).
Several values for one entry are separate records, joined by “and”; a condition that tells them apart may be missing. Equal entries are not always repeated.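 Values below derive from 48-hour exposures of cells grown in 96-well plates, with endpoints linearly interpolated between the two concentrations bracketing the appropriate inhibition level. GI50: concentration for 50% inhibition of growth. TGI marks complete inhibition of growth.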

Experiments:
Experiment in all cases: NCI anticancer screen, dose series, 48 h
UACC-257 melanoma = system: UACC-257 melanoma
SK-MEL-28 melanoma = system: SK-MEL-28 melanoma
SNB-75 CNS = system: SNB-75 CNS
HOP-92 NSCLC = system: HOP-92 NSCLC
SR leukemia = system: SR leukemia
786-0 renal = system: 786-0 renal
SW-620 colon = system: SW-620 colon
SK-MEL-5 melanoma = system: SK-MEL-5 melanoma
BT-549 breast = system: BT-549 breast
HS 578T breast = system: HS 578T breast

Structure (SMILES) | TGI (UACC-257 melanoma) [µM] | TGI (SK-MEL-28 melanoma) [µM] | TGI (SNB-75 CNS) [µM] | TGI (HOP-92 NSCLC) [µM] | TGI (SR leukemia) [µM] | TGI (786-0 renal) [µM] | TGI (SW-620 colon) [µM] | TGI (SK-MEL-5 melanoma) [µM] | GI50 (UACC-257 melanoma) [µM] | GI50 (BT-549 breast) [µM] | TGI (BT-549 breast) [µM] | GI50 (SK-MEL-28 melanoma) [µM] | GI50 (SNB-75 CNS) [µM] | GI50 (HOP-92 NSCLC) [µM] | GI50 (786-0 renal) | GI50 (SW-620 colon) [µM] | GI50 (HS 578T breast) [µM] | TGI (HS 578T breast) [µM] | GI50 (SK-MEL-5 melanoma) [µM] | GI50 (SR leukemia) [µM]
O=C(/C=C/c1ccc(O)cc1)c1cc(Cl)ccc1O | > 100 | > 100 | > 100 | > 100 | 54.6 | > 100 | > 100 | > 100 |  |  |  |  |  |  |  |  |  |  |  | 
ClCCCCOC1CCCCO1 (centres undefined) | > 100 | > 100 | > 100 | > 100 |  | > 100 | > 100 | > 100 |  |  |  |  |  |  |  |  |  |  |  | 
Nc1nc2ncn(CC(O)COC(=O)c3ccccc3)c2c(=O)[nH]1 (centres undefined) | > 100 | > 100 | > 100 | > 100 | > 100 | > 100 | > 100 | > 100 |  |  |  |  |  |  |  |  |  |  |  | 
COC(CC1(OC)OC(=O)C=C1N)OC (centres undefined) | > 100 | > 100 | > 100 | > 100 | > 100 | > 100 | > 100 | > 100 |  |  |  |  |  |  |  |  |  |  |  | 
CC1COCCN1CC#CCOC(=O)c1cc2ccccc2oc1=O (centres undefined) | > 100 | > 100 | > 100 | > 100 |  | > 100 | > 100 | > 100 | > 100 | > 100 | > 100 | > 100 | 83.4 | 72.5 | > 100 µM | > 100 | 62.4 | > 100 | > 100 | 
N#CC1C(=O)NC(=O)C1=O (centres undefined) | > 100 | > 100 | > 100 | > 100 |  | > 100 | > 100 | > 100 |  |  |  |  |  |  |  |  |  |  |  | 
COc1cc2c(cc1O)C1CC(CC3CCCCN31)OC(=O)/C=C\c1ccc(O)c-2c1 (centres undefined) | 39.7 | 85.2 | 34.2 | 97.9 |  | > 100 | > 100 | 31.4 |  |  | 67.5 |  |  |  |  |  |  | 57.5 |  | 
COc1ccc2c(c1)N(CCO)C1=C(C(=O)OC1)C2c1ccc(OC)c(OC)c1 (centres undefined) | > 100 | > 100 | > 100 |  | > 100 | > 100 | > 100 | 15.5 | 3.38 | 2.98 | 9.74 | 3.33 | 2.7 |  | 3.98 µM | 3.21 | 2.88 | 9.82 | 2.63 | 3.68
Cc1cc(N)cc(C)c1-c1c(Br)cc(N)cc1Br | 51.8 | 33.7 | 16.2 | 9.32 |  | 18.7 | > 100 | 16.1 | 14.3 | 7.51 | 30.4 | 5.21 | 2.29 | 2.01 | 5.53 µM | 3.68 |  |  | 4.52 | 
CCCCC(C(=O)CCC(=O)Nc1ccc(Cl)cc1)C(=O)C(C)C (centres undefined) | > 100 | > 100 | > 100 | > 100 | > 100 | > 100 | > 100 | > 100 |  |  |  |  |  |  |  |  |  |  |  | 
N=C1/C(=C2\Nc3ccccc3S2)CC(=O)N1c1ccc(SC(F)F)cc1 | > 100 | > 100 | 1.15 |  | > 100 | > 100 | > 100 | > 100 | > 100 | > 100 | > 100 | 4.38 | 0.17 |  | 3.23 µM | 5.37 | 2.17 | 29.2 | 5.85 | 2.21
CCCCCCCCCCCC(=O)OC(COC(N)=O)COc1ccc(Cl)cc1 (centres undefined) | 51 | 36.2 | > 100 |  |  | > 100 | 63 | 32.8 |  |  |  |  |  |  |  |  |  |  |  | 
COC(=O)C1=C(\O)C[C@@]2(C)CC[C@@H](C(=O)OC)C2C/C=C\1C(=O)OC (some centres undefined) | > 100 | > 100 | > 100 | > 100 | > 100 | > 100 | > 100 | > 100 |  |  |  |  |  |  |  |  |  |  |  | 
N#Cc1cn(-c2c3ccccc3nc3ccccc23)c(=O)[nH]c1=O | 27.7 | 31.4 | 33.3 | 23.1 | 24.6 | 13.5 | 38 |  |  |  |  |  |  |  |  |  |  |  |  | 
CN1CCc2cc3c4cc2C1Cc1ccc(cc1)Oc1cc(ccc1O)CC1c2c(cc(O)c(c2O4)O3)CCN1C (centres undefined) | 4.04 | 3.33 | 65.6 | 8.13 | > 100 | 10.9 | 7.46 | 16.7 |  |  |  |  |  |  |  |  |  |  |  | 
C[C@H](c1ccccc1)N(CCC(=O)O)C(=O)CCN(C(=O)CCN(C(=O)CCN[C@H](C)c1ccccc1)[C@H](C)c1ccccc1)[C@H](C)c1ccccc1 | > 100 | > 100 | > 100 | > 100 |  | > 100 | > 100 | > 100 | > 100 | > 100 | > 100 | > 100 | 66.4 | 92 | > 100 µM | > 100 | > 100 | > 100 | > 100 | 
N#Cc1c(N)c(C#N)c2c(c1-c1ccc(Cl)cc1)COc1ccc(F)cc1-2 | > 50 | > 50 | > 50 | > 50 | > 50 | > 50 | > 50 | > 50 | > 50 |  |  | > 50 | 25.6 | > 50 | 20 µM | 22.5 |  |  | 16.4 | > 50
COc1cc(/C=C/c2cc(O)c(C/C=C(\C)CC/C=C(\C)CO)c(O)c2)cc2c1O[C@]1(C)CC[C@@H](O)C(C)(C)[C@H]1C2 | > 100 | > 100 | > 100 | > 84.6 |  |  |  |  | > 100 | 4.14 | > 54.7 | > 58.3 | 55 |  | 0.0172 µM and 0.13 µM |  |  |  |  | 
O=C(O)c1cn(C2CC2)c2cc(N3CCN(Cc4ccc5ccccc5c4O)CC3)c(F)cc2c1=O |  | > 100 | 6.73 | 5.44 |  | 5.42 |  | > 100 |  |  |  | 3.71 | 1.87 | 2.15 | 2.34 µM |  | 2.3 | 6.9 | 3.78 | 
CCCCCCSc1nc(COC(=O)NC)c(COC(=O)NC)n1C | > 100 | > 100 | > 100 |  | > 100 | > 100 | > 100 | > 100 |  |  | > 100 |  |  |  |  |  |  | > 100 |  | 
